# Results as given in US20230040770A1, “HETEROCYCLIC COMPOUND AND USE THEREOF” (TAKEDA PHARMACEUTICAL COMPANY LIMITED, priority 2019, published 2023).
# Target: T1, human orexin type 2 receptor (Homo sapiens, UniProt O43614)
# T1 construct: expressed in transfected cells
# T1 sequence (O43614 1-444): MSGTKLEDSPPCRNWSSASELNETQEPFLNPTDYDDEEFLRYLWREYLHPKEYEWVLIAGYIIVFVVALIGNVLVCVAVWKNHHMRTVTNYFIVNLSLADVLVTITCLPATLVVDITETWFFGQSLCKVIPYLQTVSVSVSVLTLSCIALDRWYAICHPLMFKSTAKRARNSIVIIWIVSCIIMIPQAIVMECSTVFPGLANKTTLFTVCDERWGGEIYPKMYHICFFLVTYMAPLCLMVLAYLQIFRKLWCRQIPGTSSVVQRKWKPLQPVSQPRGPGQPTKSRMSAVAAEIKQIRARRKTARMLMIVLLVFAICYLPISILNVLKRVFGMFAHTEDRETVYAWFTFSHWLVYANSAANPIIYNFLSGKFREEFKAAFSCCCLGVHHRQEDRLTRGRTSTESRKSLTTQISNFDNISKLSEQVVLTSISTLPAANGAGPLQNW
# Test: Measurement of orexin type 2 receptor agonist activity (calcium indicator fluorescence, CHO cells forcibly expressing human OX2 receptor)
# Assay type: cell-based
# Conditions: compound at 3 μM; 0% = DMSO, 100% = orexin A (human) 10 nM
# Method in brief: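 Agonist response normalised between vehicle (0%) and orexin A at 10 nM final (100%), from kinetic Fluo-4 calcium signals recorded for about 2 min after compound addition. Cells: stable human OX2R CHO clone, dye-loaded 30 min at 37 °C plus 30 min at room temperature.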
row,Compound,"OX2R agonist activity (3 μM, %)"
1,"CCS(=O)(=O)N[C@H]1[C@@H](F)CN(C(=O)N(C)C)[C@H]1Cc1cccc(-c2cccc(F)c2)c1F [Example 210, (2S,3R,4S)-2-[(2,3′-difluoro[1,1′-biphenyl]-3-yl)methyl]-3-[(ethanesulfonyl)amino]-4-fluoro-N,N-dimethylpyrrolidine-1-carboxamide]",95%
2,"CCS(=O)(=O)N[C@@H]1[C@H](Cc2cccc(-c3ccccc3)c2F)N(C(=O)[C@H]2CCCO2)CC1(F)F [Example 105, N-{(2S,3R)-4,4-difluoro-2-[(2-fluoro[1,1′-biphenyl]-3-yl)methyl]-1-[(2R)-oxolane-2-carbonyl]pyrrolidin-3-yl}ethanesulfonamide]",99%
3,"CCS(=O)(=O)N[C@@H]1[C@H](Cc2cccc(-c3ccccc3)c2F)N(C(=O)[C@H]2C[C@H](F)C2)CC1(F)F [Example 378, N-[(2S,3R)-4,4-difluoro-2-[(2-fluoro[1,1′-biphenyl]-3-yl)methyl]-1-((1r,3S)-3-fluorocyclobutane-1-carbonyl)pyrrolidin-3-yl]ethanesulfonamide]",106%
4,"CCS(=O)(=O)N[C@@H]1[C@H](Cc2cccc(-c3ccc(F)c(C)c3)c2F)N(C(=O)C2CCO2)CC1(F)F (stereo partly drawn) [Example 476, N-[(2S,3R)-2-[(2,4′-difluoro-3′-methyl[1,1′-biphenyl]-3-yl)methyl]-4,4-difluoro-1-(oxetane-2-carbonyl)pyrrolidin-3-yl]ethanesulfonamide]",100%
5,"CCS(=O)(=O)N[C@@H]1[C@H](Cc2cccc(-c3ccc(F)c(C)c3F)c2F)N(C(=O)C2CCO2)CC1(F)F (stereo partly drawn) [Example 478, N-{(2S,3R)-4,4-difluoro-1-(oxetane-2-carbonyl)-2-[(2,2′,4′-trifluoro-3′-methyl[1,1′-biphenyl]-3-yl)methyl]pyrroldiin-3-yl}ethanesulfonamide]",103%
6,"Cc1cccc(-c2cccc(C[C@H]3[C@@H](NS(=O)(=O)C4CC4)C(F)(F)CN3C(=O)N(C)C)c2F)c1 [Example 425, (2S,3R)-3-[(cyclopropanesulfonyl)amino]-4,4-difluoro-2-[(2-fluoro-3′-methyl[1,1′-biphenyl]-3-yl)methyl]-N,N-dimethylpyrrolidine-1-carboxamide]",95%
7,"O=C(N1CC(F)(F)[C@H](NS(=O)(=O)C2CC2)[C@@H]1Cc1cccc(-c2cccc(F)c2F)c1F)C1(O)CCC1 [Example 424, N-{(2S,3R)-4,4-difluoro-1-(1-hydroxycyclobutane-1-carbonyl)-2-[(2,2′,3′-trifluoro[1,1′-biphenyl]-3-yl)methyl]pyrrolidin-3-yl}cyclopropanesulfonamide]",95%
8,"CCS(=O)(=O)N[C@H]1[C@@H](F)CN(C(=O)C2CCO2)[C@H]1Cc1cccc(-c2cccc(C(F)F)c2)c1F (stereo partly drawn) [Example 535, N-[(2S,3R,4S)-2-{[3′-(difluoromethyl)-2-fluoro[1,1′-biphenyl]-3-yl]methyl}-4-fluoro-1-(oxetane-2-carbonyl)pyrrolidin-3-yl]ethanesulfonamide]",102%
9,"CC(C)C(=O)N1CC(F)(F)[C@H](NS(C)(=O)=O)[C@@H]1Cc1cccc(-c2cc(F)cc(F)c2)c1 [Example 35, N-[(2S,3R)-2-[(3′,5′-difluoro[1,1′-biphenyl]-3-yl)methyl]-4,4-difluoro-1-(2-methylpropanoyl)pyrrolidin-3-yl]methanesulfonamide]",96%
10,"CS(=O)(=O)N[C@@H]1[C@H](Cc2cccc(-c3cccc(F)c3F)c2F)N(C(=O)[C@@H]2CCO2)CC1(F)F [Example 133, N-{(2S,3R)-4,4-difluoro-1-((2S)-oxetane-2-carbonyl)-2-[(2,2′,3′-trifluoro[1,1′-biphenyl]-3-yl)methyl]pyrrolidin-3-yl}methanesulfonamide]",96%
11,"Cc1cc(F)cc(-c2cccc(C[C@H]3[C@@H](NS(=O)(=O)N(C)C)C(F)(F)CN3C(=O)N3CCC3)c2F)c1 [Example 546, N′-{(2S,3R)-1-(azetidine-1-carbonyl)-2-[(2,3′-difluoro-5′-methyl[1,1′-biphenyl]-3-yl)methyl]-4,4-difluoropyrrolidin-3-yl}-N,N-dimethylsulfuric diamide]",96%
12,"Cc1cc(F)cc(-c2cccc(C[C@H]3[C@@H](NS(=O)(=O)C4CC4)[C@@H](F)CN3C(=O)C3CCO3)c2F)c1 (stereo partly drawn) [Example 491, N-[(2S,3R,4S)-2-[(2,3′-difluoro-5′-methyl[1,1′-biphenyl]-3-yl)methyl]-4-fluoro-1-(oxetane-2-carbonyl)pyrrolidin-3-yl]cyclopropanesulfonamide]",93%
13,"CCS(=O)(=O)N[C@H]1[C@@H](F)CN(C(=O)C(C)C)[C@H]1Cc1cccc(-c2cccc(F)c2F)c1F [Example 297, N-{(2S,3R,4S)-4-fluoro-1-(2-methylpropanoyl)-2-[(2,2′,3′-trifluoro[1,1′-biphenyl]-3-yl)methyl]pyrrolidin-3-yl}ethanesulfonamide]",95%
14,"CCS(=O)(=O)N[C@@H]1[C@H](Cc2cccc(-c3cc(F)cc(F)c3)c2F)N(C(=O)N2CCC2)CC1(F)F [Example 283, N-{(2S,3R)-1-(azetidine-1-carbonyl)-4,4-difluoro-2-[(2,3′,5′-trifluoro[1,1′-biphenyl]-3-yl)methyl]pyrrolidin-3-yl}ethanesulfonamide]",93%
15,"CS(=O)(=O)N[C@@H]1[C@H](Cc2cccc(-c3cc(F)cc(Cl)c3)c2F)N(C(=O)C2CCO2)CC1(F)F (stereo partly drawn) [Example 265, N-[(2S,3R)-2-[(3′-chloro-2,5′-difluoro[1,1′-biphenyl]-3-yl)methyl]-4,4-difluoro-1-(oxetane-2-carbonyl)pyrrolidin-3-yl]methanesulfonamide]",96%
16,"CC(C)C(=O)N1CC(F)(F)[C@H](NS(=O)(=O)C2CC2)[C@@H]1Cc1cccc(-c2ccccc2)c1F [Example 171, N-[(2S,3R)-4,4-difluoro-2-[(2-fluoro[1,1′-biphenyl]-3-yl)methyl]-1-(2-methylpropanoyl)pyrrolidin-3-yl]cyclopropanesulfonamide]",99%
17,"CCS(=O)(=O)N[C@@H]1[C@H](Cc2cccc(-c3cccc(Cl)c3)c2F)N(C(=O)C(C)(C)O)CC1(F)F [Example 68, N-[(2S,3R)-2-[(3′-chloro-2-fluoro[1,1′-biphenyl]-3-yl)methyl]-4,4-difluoro-1-(2-hydroxy-2-methylpropanoyl)pyrrolidin-3-yl]ethanesulfonamide]",106%
18,"CS(=O)(=O)N[C@@H]1[C@H](Cc2cccc(-c3cccc(F)c3F)c2F)N(C(=O)[C@H]2CCO2)CC1(F)F [Example 121, N-{(2S,3R)-4,4-difluoro-1-((2R)-oxetane-2-carbonyl)-2-[(2,2′,3′-trifluoro[1,1′-biphenyl]-3-yl)methyl]pyrrolidin-3-yl}methanesulfonamide]",94%
19,"CCS(=O)(=O)N[C@@H]1[C@H](Cc2cccc(-c3cccc(C(F)F)c3)c2F)N(C(=O)C2CC2)CC1(F)F [Example 508, N-[(2S,3R)-1-(cyclopropanecarbonyl)-2-{[3′-(difluoromethyl)-2-fluoro[1,1′-biphenyl]-3-yl]methyl}-4,4-difluoropyrrolidin-3-yl]ethanesulfonamide]",96%
20,"O=C(C1CC1)N1C[C@H](F)[C@H](NS(=O)(=O)C2CC2)[C@@H]1Cc1cccc(-c2cccc(F)c2F)c1F [Example 377, N-{(2S,3R,4S)-1-(cyclopropanecarbonyl)-4-fluoro-2-[(2,2′,3′-trifluoro[1,1′-biphenyl]-3-yl)methyl]pyrrolidin-3-yl}cyclopropanesulfonamide]",95%
21,"CCS(=O)(=O)N[C@H]1[C@@H](F)CN(C(=O)C2CC2)[C@H]1Cc1cccc(-c2cccc(F)c2)c1F [Example 212, N-{(2S,3R,4S)-1-(cyclopropanecarbonyl)-2-[(2,3′-difluoro[1,1′-biphenyl]-3-yl)methyl]-4-fluoropyrrolidin-3-yl}ethanesulfonamide]",96%
22,"CCS(=O)(=O)N[C@H]1[C@@H](F)CN(C(=O)N(C)C)[C@H]1Cc1cccc(-c2ccc(F)c(C)c2)c1F [Example 409, (2S,3R,4S)-2-[(2,4′-difluoro-3′-methyl[1,1′-biphenyl]-3-yl)methyl]-3-[(ethanesulfonyl)amino]-4-fluoro-N,N-dimethylpyrrolidine-1-carboxamide]",92%
23,"O=C(C1CC1)N1C[C@H](F)[C@H](NS(=O)(=O)C2CC2)[C@@H]1Cc1cccc(-c2cc(F)cc(F)c2)c1F [Example 373, N-{(2S,3R,4S)-1-(cyclopropanecarbonyl)-4-fluoro-2-[(2,3′,5′-trifluoro[1,1′-biphenyl]-3-yl)methyl]pyrrolidin-3-yl}cyclopropanesulfonamide]",88%
